Results as given in BindingDB's records for doi:10.7270/Q23F4N3R (Burnham Center For Chemical Genomics, 2011).

Experiment: HK1 enzyme inhibitors – biochemical, selectivity assay for HKDC1 inhibitor project, dose response (AID 504763)
[1] = inactive by the depositor's call

Row | Structure (SMILES) | IC50 [1] [µM] | IC50 [µM]
1 | Nc1ccc(S(=O)(=O)c2cc(O)c3ccccc3c2O)cc1 [SMR001570953] | 59.9 | 
2 | CC(OC(=O)c1cc(O)c2ccccc2c1O)C(=O)Nc1ccc(C(N)=O)cc1 (stereo unspecified) [[1-[(4-aminocarbonylphenyl)amino]-1-oxidanylidene-propan-2-yl] 1,4-bis(oxidanyl)naphthalene-2-carboxylate] |  | > 80
3 | O=C(COC(=O)c1n[nH]c2ccccc12)c1cccc(Br)c1 [[2-(3-bromophenyl)-2-oxoethyl] 1H-indazole-3-carboxylate] |  | > 80
4 | COc1ccc(S(=O)(=O)Nc2cc(SCC(=O)O)c(O)c3ccccc23)cc1 [[(1-hydroxy-4-{[(4-methoxyphenyl)sulfonyl]amino}-2-naphthyl)thio]acetic acid] | 63.3 | 
5 | CCOC(=O)c1c(-n2c(C)cc(C=C3C(=O)NC(=S)NC3=O)c2C)sc2c1CCCC2 [ethyl 2-{3-[(4,6-dioxo-2-thioxotetrahydro-5(2H)-pyrimidinylidene)methyl]-2,5-dimethyl-1H-pyrrol-1-yl}-4,5,6,7-tetrahydro-1-benzothiophene-3-carboxylate] |  | > 80
6 | CCOC(=O)C1=C(Cc2ccc(F)cc2)C(=O)c2ccccc2C1=O [ethyl 3-(4-fluorobenzyl)-1,4-dioxo-1,4-dihydro-2-naphthalenecarboxylate] | 25.4 | 
7 | CCOC(=O)C1=C(Cc2ccc(Cl)cc2)C(=O)c2ccccc2C1=O [ethyl 3-[(4-chlorophenyl)methyl]-1,4-bis(oxidanylidene)naphthalene-2-carboxylate] | 22.2 | 
8 | CCOC(=O)c1ccc(NC(=O)CSc2ccc(-c3ccccn3)nn2)cc1 [ethyl 4-[2-(6-pyridin-2-ylpyridazin-3-yl)sulfanylethanoylamino]benzoate] |  | 2.15
9 | COC(=O)C[C@]1(C(=O)OC)CN(C#N)N(c2ccc(Cl)cc2)C12c1ccccc1-c1ccccc12 [methyl 1-(4-chlorophenyl)-2-cyano-4-(2-methoxy-2-oxoethyl)spiro[pyrazolidine-5,9'-(9'H)-fluorene]-4-carboxylate] |  | > 80
10 | COC(=O)c1ccccc1NC1=CC(=NS(=O)(=O)c2cccs2)c2ccccc2C1=O [methyl 2-[[(4E)-1-oxidanylidene-4-thiophen-2-ylsulfonylimino-naphthalen-2-yl]amino]benzoate] | 57 | 
11 | O=C(O)c1ccccc1-c1c2cc(I)c(=O)c(I)c-2oc2c(I)c(O)c(I)cc12 [sodium;2-(2,4,5,7-tetraiodo-3-oxido-6-oxo-9-xanthenyl)benzoate] |  | 47.2
